According to ChEMBL document CHEMBL1201862, “PubChem BioAssay data set” (2004):
Activity calls are given as the source filed them.

Assays:
Phospholipase D2 = Phospholipase D2 (Homo sapiens, UniProt O14939); experiment: cellular phospholipase D2 inhibition IC50 – cell-based, dose response (AID 602147); type: functional;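 note: cellular assay in HEK293 cells overexpressing GFP-tagged PLD2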
Phospholipase D1 = Phospholipase D1 (Homo sapiens, UniProt Q13393); experiment: cellular phospholipase D1 inhibition IC50 – cell-based, dose response (AID 602151); type: functional;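 note: cellular PLD1 assay in Calu-1 cells stimulated with PMA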
Candida albicans [1] = experiment: fluconazole-resistant Candida strain growth inhibitors – CaCi-8 strain, dry powder, set 4, dose response (AID 488950); type: functional, organism-based
Candida albicans [2] = experiment: single-agent toxicity toward C. albicans – CaCi-2 strain, no fluconazole, dry powder, set 4, counter-screen for reversing antifungal drug resistance, dose response (AID 488932); type: functional, organism-based
Candida albicans [3] = experiment: C. albicans growth inhibition with fluconazole – CaCi-2 strain, Alamar Blue, dry powder, set 4, dose response (AID 488943); type: functional, organism-based
Hexokinase-1 = Hexokinase-1 (Homo sapiens, UniProt P19367); experiment: hexokinase 1 activity inhibitors, potency – biochemical, set 2, resazurin fluorescence coupled readout, selectivity assay for HKDC1 inhibitor project, SAR follow-up (AID 588356); type: functional
Hexokinase HKDC1 = biological target: T1, Hexokinase HKDC1 (Homo sapiens, UniProt Q2TB90); experiment: analog inhibition of human HKDC1 activity – biochemical, set 2, SAR follow-up (AID 588355); type: functional
T1 sequence (Q2TB90 whole entry): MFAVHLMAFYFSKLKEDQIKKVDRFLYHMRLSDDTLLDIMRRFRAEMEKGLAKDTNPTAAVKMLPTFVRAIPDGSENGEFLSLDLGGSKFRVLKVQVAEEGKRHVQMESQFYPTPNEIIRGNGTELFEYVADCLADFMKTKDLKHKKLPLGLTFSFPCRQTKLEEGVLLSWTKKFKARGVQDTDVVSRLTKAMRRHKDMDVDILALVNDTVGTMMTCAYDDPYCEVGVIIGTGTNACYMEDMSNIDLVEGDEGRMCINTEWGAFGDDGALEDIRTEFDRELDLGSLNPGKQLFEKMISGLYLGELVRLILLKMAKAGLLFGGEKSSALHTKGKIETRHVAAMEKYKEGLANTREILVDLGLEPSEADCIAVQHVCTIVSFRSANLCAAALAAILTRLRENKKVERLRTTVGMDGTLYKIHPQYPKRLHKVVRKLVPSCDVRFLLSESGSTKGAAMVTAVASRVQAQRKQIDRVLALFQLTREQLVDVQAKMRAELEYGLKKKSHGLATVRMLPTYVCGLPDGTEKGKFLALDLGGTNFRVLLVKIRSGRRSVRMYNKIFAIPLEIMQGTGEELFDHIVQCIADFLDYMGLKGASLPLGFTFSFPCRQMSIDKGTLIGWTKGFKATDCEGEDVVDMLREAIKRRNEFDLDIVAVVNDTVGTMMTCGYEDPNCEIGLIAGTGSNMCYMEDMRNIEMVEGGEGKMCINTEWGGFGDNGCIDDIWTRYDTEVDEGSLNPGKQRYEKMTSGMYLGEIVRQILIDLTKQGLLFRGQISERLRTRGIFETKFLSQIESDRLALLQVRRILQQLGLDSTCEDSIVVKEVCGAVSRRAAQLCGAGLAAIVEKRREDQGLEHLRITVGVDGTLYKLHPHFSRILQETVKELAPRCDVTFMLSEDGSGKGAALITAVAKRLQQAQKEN

CAAX prenyl protease 2 [4] = biological target: CAAX prenyl protease 2 (Homo sapiens, UniProt Q9Y256); experiment: inhibition of Ras-converting CAAX protease Rce1 – biochemical, yeast membranes, quenched-peptide fluorescence, cherry-pick, dose response (AID 588849)
Sequence of CAAX prenyl protease 2 (Homo sapiens, UniProt Q9Y256) (Q9Y256 whole entry): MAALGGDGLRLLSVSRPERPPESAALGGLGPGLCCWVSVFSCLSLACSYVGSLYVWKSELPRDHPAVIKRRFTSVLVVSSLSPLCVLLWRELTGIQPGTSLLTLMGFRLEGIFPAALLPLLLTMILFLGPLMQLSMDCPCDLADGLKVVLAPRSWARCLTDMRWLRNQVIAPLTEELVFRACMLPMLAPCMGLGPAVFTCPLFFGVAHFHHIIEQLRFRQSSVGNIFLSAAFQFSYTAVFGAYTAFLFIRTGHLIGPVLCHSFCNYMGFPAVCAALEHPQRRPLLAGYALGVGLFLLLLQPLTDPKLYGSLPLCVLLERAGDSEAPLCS

CAAX prenyl protease 2 [5] = biological target: T2, CAAX prenyl protease 2 (Saccharomyces cerevisiae S288c, UniProt Q03530); type: biochemical
T2 sequence (Q03530 whole entry): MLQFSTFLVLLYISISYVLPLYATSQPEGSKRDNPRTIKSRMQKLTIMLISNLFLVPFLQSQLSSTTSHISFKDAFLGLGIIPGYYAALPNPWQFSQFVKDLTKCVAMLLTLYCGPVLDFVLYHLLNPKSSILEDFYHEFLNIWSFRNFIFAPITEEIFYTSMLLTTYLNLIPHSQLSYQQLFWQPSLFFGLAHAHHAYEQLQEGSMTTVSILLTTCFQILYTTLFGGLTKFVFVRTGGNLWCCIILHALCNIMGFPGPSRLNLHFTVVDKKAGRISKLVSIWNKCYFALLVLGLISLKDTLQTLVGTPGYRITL

Trypsin = Trypsin (Sus scrofa, UniProt P00761); experiment: trypsin protease activity blockade – biochemical, quenched peptide fluorescence, cherry-pick, selectivity assay for Rce1 protease inhibitor project, dose response (AID 488789)
Sequence of Trypsin (P00761 whole entry): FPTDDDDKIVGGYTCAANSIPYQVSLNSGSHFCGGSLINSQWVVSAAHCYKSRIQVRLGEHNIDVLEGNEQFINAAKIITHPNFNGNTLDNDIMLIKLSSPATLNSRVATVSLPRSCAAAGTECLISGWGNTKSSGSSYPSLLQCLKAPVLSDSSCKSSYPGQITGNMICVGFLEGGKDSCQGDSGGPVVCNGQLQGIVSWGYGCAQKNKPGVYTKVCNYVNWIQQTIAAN

[6] = luciferase reporter signal suppression in cells – H4 neuroglioma cells, luminescence, dose response (AID 1990); type: functional, cell-based
[7] = alpha-synuclein stem-loop luciferase translation blockers – H4 neuroglioma cells, luminescence, confirmation (AID 1988); type: functional, cell-based
HeLa = experiment: toxicity to human HeLa cells – cell-based, 48 h, plate reader, cherry-picks, cytotoxicity control, dose response (AID 504942); type: functional
[8] = biological target: Acyl-homoserine lactone acylase PvdQ (Pseudomonas aeruginosa (strain LESB58), UniProt Q9I194); experiment: PvdQ acylase enzyme activity blockers – biochemical, fluorescence, plate reader and imaging, cherry-picks, dose response (AID 493231)
Sequence of Acyl-homoserine lactone acylase PvdQ (Q9I194 24-193 limits assumed): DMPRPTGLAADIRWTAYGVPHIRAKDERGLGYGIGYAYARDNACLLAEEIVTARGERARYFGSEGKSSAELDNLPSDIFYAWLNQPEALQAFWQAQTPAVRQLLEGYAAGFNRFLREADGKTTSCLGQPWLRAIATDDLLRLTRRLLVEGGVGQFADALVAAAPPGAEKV
Sequence of Acyl-homoserine lactone acylase PvdQ (Q9I194 217-762 limits assumed): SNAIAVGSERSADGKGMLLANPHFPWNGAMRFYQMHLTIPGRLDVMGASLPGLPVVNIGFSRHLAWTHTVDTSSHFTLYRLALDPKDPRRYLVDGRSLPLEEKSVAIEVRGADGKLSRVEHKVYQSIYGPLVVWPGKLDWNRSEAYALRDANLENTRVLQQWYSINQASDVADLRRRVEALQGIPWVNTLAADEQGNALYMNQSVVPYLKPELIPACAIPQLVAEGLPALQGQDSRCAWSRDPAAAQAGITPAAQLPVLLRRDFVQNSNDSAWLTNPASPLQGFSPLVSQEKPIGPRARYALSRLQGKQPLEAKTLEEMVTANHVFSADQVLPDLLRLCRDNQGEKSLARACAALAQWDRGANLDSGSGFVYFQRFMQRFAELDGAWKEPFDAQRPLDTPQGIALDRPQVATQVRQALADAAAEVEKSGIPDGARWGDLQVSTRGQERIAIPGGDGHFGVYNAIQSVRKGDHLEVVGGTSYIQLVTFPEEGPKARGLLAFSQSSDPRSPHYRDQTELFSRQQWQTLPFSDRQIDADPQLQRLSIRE

[9] = biological target: T3, Endoribonuclease toxin MazF (Escherichia coli K-12, UniProt P0AE70); experiment: activation of MazEF endoribonuclease cleavage – biochemical, fluorescence, single-stranded RNA substrate, uHTS hits, dose response (AID 588481); type: functional
T3 sequence (P0AE70 whole entry): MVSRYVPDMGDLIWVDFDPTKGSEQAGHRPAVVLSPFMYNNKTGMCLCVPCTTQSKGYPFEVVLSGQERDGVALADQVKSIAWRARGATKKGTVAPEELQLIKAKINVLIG

[10] = biological target: T3, Endoribonuclease toxin MazF; experiment: substrate-only fluorescence increase artefacts – biochemical, single-stranded RNase substrate, counter-screen for MazEF activator project, dose response (AID 588502); type: functional
DNA topoisomerase = DNA topoisomerase (Yersinia pestis, UniProt A0A2S9PM60); experiment: Yersinia topoisomerase I cleavage product accumulation – biochemical, cherry-pick, dose response (AID 588525)
Sequence of DNA topoisomerase (A0A2S9PM60 whole entry): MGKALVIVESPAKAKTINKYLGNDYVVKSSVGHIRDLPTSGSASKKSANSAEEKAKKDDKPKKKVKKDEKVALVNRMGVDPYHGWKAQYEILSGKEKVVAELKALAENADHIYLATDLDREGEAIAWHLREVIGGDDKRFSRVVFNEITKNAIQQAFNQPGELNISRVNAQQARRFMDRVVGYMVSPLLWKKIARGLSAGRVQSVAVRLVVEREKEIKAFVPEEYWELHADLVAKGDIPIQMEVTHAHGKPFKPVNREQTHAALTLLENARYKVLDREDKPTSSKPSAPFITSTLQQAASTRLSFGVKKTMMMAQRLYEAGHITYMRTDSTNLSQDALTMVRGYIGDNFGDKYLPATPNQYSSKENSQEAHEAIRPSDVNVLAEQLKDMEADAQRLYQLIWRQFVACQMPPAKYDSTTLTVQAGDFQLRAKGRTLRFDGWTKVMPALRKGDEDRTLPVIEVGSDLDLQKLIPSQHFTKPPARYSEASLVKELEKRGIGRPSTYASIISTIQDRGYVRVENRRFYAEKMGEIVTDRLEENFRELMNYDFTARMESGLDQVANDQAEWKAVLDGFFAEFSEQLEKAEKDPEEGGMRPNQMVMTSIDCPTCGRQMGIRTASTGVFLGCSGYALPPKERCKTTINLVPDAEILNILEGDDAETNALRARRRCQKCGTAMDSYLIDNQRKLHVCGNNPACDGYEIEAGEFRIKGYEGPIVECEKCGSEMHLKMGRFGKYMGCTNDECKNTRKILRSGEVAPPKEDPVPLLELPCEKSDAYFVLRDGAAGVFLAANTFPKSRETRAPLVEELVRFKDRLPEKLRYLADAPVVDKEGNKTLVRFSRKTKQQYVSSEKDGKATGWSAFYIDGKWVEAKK

INS1 [11] = experiment: INS-1E survival protection against cytokine death – cell-based, luminescence, retest, dose response (AID 449756); type: functional; conditions: Rattus norvegicus;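 note: cell death triggered by IL-1 beta plus TNF-alpha plus IFN-gamma mixture; protective hits raise ATP signal compared with cytokine alone wells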
INS1 [12] = experiment: INS-1E mitochondrial potential rescue under cytokines – cell-based, JC-1 fluorescence ratio, dry powder, dose response (AID 488931); type: functional; conditions: Rattus norvegicus
INS1 [13] = experiment: beta-cell survival under cytokine stress – INS-1E, ATP luminescence, dry powder, dose response (AID 488844); type: functional, cell-based; conditions: Rattus norvegicus
Bcl-2-like protein 10 = Bcl-2-like protein 10 (Homo sapiens, UniProt Q9HD36); experiment: Isothermal titration calorimetry (ITC) with Bcl-B and compounds active in primary screen. [Related pubchem assays (depositor defined):AID1693]; type: functional
Sequence of Bcl-2-like protein 10 (Q9HD36 whole entry): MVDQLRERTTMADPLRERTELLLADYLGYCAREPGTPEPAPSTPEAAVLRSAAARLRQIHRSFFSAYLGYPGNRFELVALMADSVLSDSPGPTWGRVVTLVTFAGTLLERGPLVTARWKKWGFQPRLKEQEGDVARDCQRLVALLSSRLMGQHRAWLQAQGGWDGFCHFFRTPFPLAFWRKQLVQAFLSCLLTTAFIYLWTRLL

[14] = biological target: T4, Short transient receptor potential channel 4 (Mus musculus, UniProt Q9QUQ5); experiment: SAR Analysis for the identification of selective inhibits of the transient receptor potential cation channel C4 (TRPC4): Automated Electrophysiology. [Related pubchem assays (depositor defined):AID2256]; type: functional
T4 sequence (Q9QUQ5 whole entry): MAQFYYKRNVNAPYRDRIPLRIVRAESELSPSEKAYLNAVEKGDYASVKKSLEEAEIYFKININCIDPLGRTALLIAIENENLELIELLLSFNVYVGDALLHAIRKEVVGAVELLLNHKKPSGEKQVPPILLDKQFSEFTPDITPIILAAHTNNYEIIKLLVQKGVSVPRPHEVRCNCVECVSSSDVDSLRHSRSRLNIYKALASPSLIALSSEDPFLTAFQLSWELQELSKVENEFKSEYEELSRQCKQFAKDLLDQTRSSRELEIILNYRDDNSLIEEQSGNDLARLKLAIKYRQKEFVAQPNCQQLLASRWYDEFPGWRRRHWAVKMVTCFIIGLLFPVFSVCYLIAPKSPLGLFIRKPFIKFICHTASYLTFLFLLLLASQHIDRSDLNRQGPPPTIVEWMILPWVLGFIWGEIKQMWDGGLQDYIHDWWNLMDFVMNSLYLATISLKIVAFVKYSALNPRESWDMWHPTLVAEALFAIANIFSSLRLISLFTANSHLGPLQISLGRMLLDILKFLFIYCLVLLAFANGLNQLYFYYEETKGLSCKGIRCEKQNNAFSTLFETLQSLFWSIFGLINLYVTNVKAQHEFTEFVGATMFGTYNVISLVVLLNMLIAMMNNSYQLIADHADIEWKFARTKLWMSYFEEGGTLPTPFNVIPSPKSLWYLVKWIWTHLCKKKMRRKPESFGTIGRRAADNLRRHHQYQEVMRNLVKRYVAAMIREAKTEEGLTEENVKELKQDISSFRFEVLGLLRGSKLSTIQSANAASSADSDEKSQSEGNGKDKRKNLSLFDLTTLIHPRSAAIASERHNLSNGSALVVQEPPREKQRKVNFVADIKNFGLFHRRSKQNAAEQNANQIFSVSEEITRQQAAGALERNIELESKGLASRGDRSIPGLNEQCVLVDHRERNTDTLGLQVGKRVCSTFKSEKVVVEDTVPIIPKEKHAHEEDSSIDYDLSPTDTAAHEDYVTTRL

[15] = biological target: T4, Short transient receptor potential channel 4; experiment: potency of mouse TRPC4 calcium flux blockers – cell-based, HEK293 TRPC4/mu-opioid, DAMGO stimulus, Fluo-4, dose response (AID 492994); type: functional
[16] = biological target: Short transient receptor potential channel 6 (Mus musculus, UniProt Q61143); experiment: mouse TRPC6 channel blockers, concentration series – HEK293 cells, membrane potential dye, IC50, selectivity assay for selective TRPC4 inhibitor project, dose response (AID 492987); type: functional, cell-based
Sequence of Short transient receptor potential channel 6 (Q61143 whole entry): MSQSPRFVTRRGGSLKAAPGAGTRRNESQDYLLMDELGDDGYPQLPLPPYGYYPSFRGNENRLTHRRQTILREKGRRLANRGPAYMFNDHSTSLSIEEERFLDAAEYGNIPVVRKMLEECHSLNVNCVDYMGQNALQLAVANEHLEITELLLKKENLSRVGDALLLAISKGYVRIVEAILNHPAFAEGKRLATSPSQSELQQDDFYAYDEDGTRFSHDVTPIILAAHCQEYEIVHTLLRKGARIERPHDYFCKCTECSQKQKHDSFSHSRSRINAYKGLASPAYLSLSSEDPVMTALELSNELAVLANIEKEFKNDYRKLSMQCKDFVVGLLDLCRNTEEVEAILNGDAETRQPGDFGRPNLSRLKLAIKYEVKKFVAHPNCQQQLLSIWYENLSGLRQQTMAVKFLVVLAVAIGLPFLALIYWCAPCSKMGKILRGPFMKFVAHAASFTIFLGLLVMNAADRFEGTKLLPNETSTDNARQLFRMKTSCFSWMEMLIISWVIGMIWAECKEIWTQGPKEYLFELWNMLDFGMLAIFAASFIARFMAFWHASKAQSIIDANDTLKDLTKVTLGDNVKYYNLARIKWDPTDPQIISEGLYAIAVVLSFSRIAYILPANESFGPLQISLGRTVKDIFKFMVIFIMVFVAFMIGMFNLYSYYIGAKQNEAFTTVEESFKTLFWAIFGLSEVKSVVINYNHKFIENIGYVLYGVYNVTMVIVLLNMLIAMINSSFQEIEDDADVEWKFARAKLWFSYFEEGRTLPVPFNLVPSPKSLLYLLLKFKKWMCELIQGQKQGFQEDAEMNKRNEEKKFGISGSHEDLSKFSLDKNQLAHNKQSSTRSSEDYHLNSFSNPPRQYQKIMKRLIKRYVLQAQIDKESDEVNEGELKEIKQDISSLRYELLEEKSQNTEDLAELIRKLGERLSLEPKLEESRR

[17] = decrease of insulin promoter-GFP reporter – imaging, high-content screening, mouse beta cells (AID 1628); type: functional; conditions: MIN6
[18] = MIN6 cell viability loss – mouse insulinoma, cytotoxicity control, dose response (AID 2122); type: functional;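 note: confirmatory high-throughput counterscreen run to flag cytotoxic compounds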
[19] = biological target: Beta-2 adrenergic receptor (Homo sapiens, UniProt P07550); experiment: ADRB2 activation measured by internalization – cell-based, FAP fluorogen, flow cytometry, cherry pick 1, dose response (AID 588763); type: functional
Sequence of Beta-2 adrenergic receptor (P07550 whole entry): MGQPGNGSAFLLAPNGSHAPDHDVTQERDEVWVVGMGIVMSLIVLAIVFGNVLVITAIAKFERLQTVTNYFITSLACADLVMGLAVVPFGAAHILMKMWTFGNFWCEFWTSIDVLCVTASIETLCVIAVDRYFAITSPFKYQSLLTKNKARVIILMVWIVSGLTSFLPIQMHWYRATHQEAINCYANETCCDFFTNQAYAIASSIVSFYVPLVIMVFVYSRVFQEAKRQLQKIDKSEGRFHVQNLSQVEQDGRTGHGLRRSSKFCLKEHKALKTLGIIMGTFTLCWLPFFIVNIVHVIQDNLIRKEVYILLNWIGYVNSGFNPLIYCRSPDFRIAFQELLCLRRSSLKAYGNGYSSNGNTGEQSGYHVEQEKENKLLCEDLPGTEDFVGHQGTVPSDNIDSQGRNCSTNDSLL

Sequence of Phospholipase D2 (O14939 whole entry): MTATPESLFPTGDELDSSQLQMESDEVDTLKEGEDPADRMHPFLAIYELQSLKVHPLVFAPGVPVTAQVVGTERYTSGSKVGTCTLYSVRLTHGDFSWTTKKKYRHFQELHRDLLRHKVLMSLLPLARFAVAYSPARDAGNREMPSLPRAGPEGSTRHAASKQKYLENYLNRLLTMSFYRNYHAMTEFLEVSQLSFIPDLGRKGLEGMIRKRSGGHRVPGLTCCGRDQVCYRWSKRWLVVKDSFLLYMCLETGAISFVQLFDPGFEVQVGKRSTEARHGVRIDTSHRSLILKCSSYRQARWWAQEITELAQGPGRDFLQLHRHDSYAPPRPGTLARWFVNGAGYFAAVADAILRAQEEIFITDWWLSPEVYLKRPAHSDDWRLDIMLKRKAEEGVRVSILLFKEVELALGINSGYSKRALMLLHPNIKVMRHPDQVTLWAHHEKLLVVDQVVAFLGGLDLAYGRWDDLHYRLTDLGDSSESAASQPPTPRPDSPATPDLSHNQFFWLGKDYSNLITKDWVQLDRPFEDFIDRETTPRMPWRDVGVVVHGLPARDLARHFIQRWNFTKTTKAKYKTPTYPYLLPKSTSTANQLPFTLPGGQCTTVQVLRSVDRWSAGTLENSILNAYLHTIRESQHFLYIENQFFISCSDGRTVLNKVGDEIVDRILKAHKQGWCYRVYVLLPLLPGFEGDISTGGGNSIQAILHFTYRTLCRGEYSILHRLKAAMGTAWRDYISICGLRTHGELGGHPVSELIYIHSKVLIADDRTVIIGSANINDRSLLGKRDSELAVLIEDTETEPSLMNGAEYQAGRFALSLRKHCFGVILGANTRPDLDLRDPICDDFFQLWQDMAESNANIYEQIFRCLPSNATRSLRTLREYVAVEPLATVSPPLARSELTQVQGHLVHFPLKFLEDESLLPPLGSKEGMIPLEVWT

For `O=C(NCCN1CCC2(CC1)C(=O)NCN2c1ccc(F)c(F)c1)c1ccc(Cl)cc1`, the IC50 (Phospholipase D2) was 0.37 µM (active) and the IC50 (Phospholipase D1) was 2.36 µM (active).
With `O=C(c1ccc(Cl)cc1)N1CCN(c2cnccn2)CC1` the AC50 (Candida albicans [1]) was 10.7 µM (active), the AC50 (Candida albicans [2]) was 234 µM (active) and the AC50 (Candida albicans [3]) was 12.7 µM (active).
With `O=c1c2c(F)cccc2nc(/C=C/c2cccnc2)n1Cc1ccccc1` the IC50 (Hexokinase-1) was > 80 µM (inactive) and the IC50 (Hexokinase HKDC1) was > 80 µM (inactive).
For `CC1=C(C)C(C)=C(C#N)C(=C(C#N)C#N)N1`, the AC50 (CAAX prenyl protease 2 [4]) was 13.9 µM (active), the AC50 (CAAX prenyl protease 2 [5]) was 13.2 µM (active) and the AC50 (Trypsin) was 12.1 µM (active).
In the case of `COc1ccc(C2=C(C=O)Cc3ccccc3O2)cc1`, the EC50 [6] is reported as > 120 µM (not active), the EC50 [7] is reported as > 120 µM (not active) and the AC50 (HeLa) is reported as > 380 µM (inactive). The AC50 [8] was 4.37 µM (active).
For `Cc1ccc(O)c(C2=Nc3ccccc3N=C(c3ccco3)C2)c1`, the EC50 [9] was > 99 µM (inactive) and the EC50 [10] was 75.1 µM (inactive).
With `CC(C)(C)OC(=O)NCc1ccc(NC(=O)c2[nH]cnc2C(=O)NCCNC(=O)c2nc[nH]c2C(=O)Nc2ccc(CNC(=O)OC(C)(C)C)cc2)cc1` the AC50 (DNA topoisomerase) was 2.49 µM (active) and the AC50 (INS1 [11]) was 6.59 µM (active).
For `Cc1ccc(S(=O)(=O)N(C)C[C@@H]2Oc3c(NC(=O)Nc4ccccc4)cccc3C(=O)N([C@H](C)CO)C[C@H]2C)cc1`, the AC50 (INS1 [12]) was 141 µM (active) and the AC50 (INS1 [13]) was 22.6 µM (active).
For `O=C1NC(=O)C2(Cc3c(nc4ccccn4c3=O)N3CCCCCC32)C(=O)N1Cc1ccccc1` (configuration not stated), the IC50 (Bcl-2-like protein 10) was 2.51 µM (active).
In the case of `Cc1cc(N2CCCCC2)nc2ccc(F)cc12`, the IC50 [14] is reported as 6.18 µM (active), the IC50 [15] is reported as 10.5 µM (active) and the IC50 [16] is reported as 20.1 µM (active).
In the case of `CC1(C)Cc2c(c(-c3ccco3)nc3sc4c(NCCO)ncnc4c23)CO1`, the IC50 [17] is reported as 0.909 µM (active), the IC50 [18] is reported as > 16 µM (inactive) and the EC50 [19] is reported as 0.0133 µM (active).
